Laboratory results: paper PMC6316731 (Brain Sciences, 2018)

Tested on: GABA induced current in MSNs (GABAA receptors with δ subunits / GABAC receptors)
Assay type: cell-based, mouse

With `Oc1noc2c1CCNC2` [Gaboxadol, 4,5,6,7-tetrahydroisoxazolo (5,4-c) pyridin-3-ol] the “Effect on IGABA” value was “concentration-dependent reduction in IGABA” and the EC50 (read-out: EC50, percent reduction in current by Gaboxadol) was 9.81 ± 3.56 µM.
